Values joined by “and” are separate entries in the source; they are usually repeats but may differ in a detail not shown here. Identical values can stand only once.
Test: xn = mol fraction of the nth substance listed

CCC(=O)O + Cc1ccccc1
viscosity [mPa·s], 101.33 kPa
Settings	293.15 K	303.15 K	308.15 K	313.15 K	323.15 K
x1 = 0.1231	–	–	0.5358	–	–
x1 = 0.2366	–	–	0.5532	–	–
x1 = 0.3487	–	–	0.5721	–	–
x1 = 0.4523	–	–	0.597	–	–
x1 = 0.5546	–	–	0.6271	–	–
x1 = 0.6523	–	–	0.6628	–	–
x1 = 0.7435	–	–	0.702	–	–
x1 = 0.832	–	–	0.7411	–	–
x1 = 0.9187	–	–	0.8128	–	–
x2 = 0.0286	1.06	0.9144	–	0.8218	0.7431
x2 = 0.072	1.009	0.8713	–	0.7818	0.6965
x2 = 0.1175	0.967	0.8298	–	0.751	0.672
x2 = 0.1497	0.9304	0.7997	–	0.7176	0.6478
x2 = 0.2309	0.8623	0.7424	–	0.6663	0.5978
x2 = 0.3182	0.806	0.6911	–	0.6194	0.5682
x2 = 0.4118	0.7554	0.6539	–	0.5909	0.5342
x2 = 0.5137	0.7079	0.6205	–	0.5536	0.5047
x2 = 0.555	0.6938	0.6095	–	0.5469	0.4952
x2 = 0.6209	0.6768	0.5898	–	0.5292	0.4824
x2 = 0.6913	0.6606	0.5743	–	0.5131	0.4666
x2 = 0.7372	0.6419	0.5603	–	0.5035	0.4574
x2 = 0.787	0.6276	0.5507	–	0.494	0.4506
x2 = 0.8644	0.6088	0.5364	–	0.4799	0.4372
x2 = 0.9714	0.5928	0.5259	–	0.4684	0.4295

CCCCCCCN + Cc1ccccc1
303.15 K, 101 kPa
Settings	viscosity [mPa·s]
x2 = 0.1243	0.8161
x2 = 0.2792	0.7217
x2 = 0.4418	0.6387
x2 = 0.5561	0.5933
x2 = 0.5995	0.58
x2 = 0.7025	0.5493
x2 = 0.7845	0.5305
x2 = 0.875	0.5139
x2 = 0.939	0.5173

Nc1cccc(Cl)c1 + Cc1ccccc1Cl
viscosity [mPa·s], 100 kPa
Settings	x1 = 0.0744	x1 = 0.1659	x1 = 0.2575	x1 = 0.3522	x1 = 0.4708	x1 = 0.5714	x1 = 0.6762	x1 = 0.7838	x1 = 0.8902
303.15 K	1.146	1.462	1.777	2.1	2.502	2.84	3.191	3.548	3.898
308.15 K	1.044	1.329	1.614	1.906	2.267	2.573	2.888	3.209	3.523
313.15 K	0.9401	1.196	1.45	1.71	2.033	2.304	2.585	2.871	3.149
318.15 K	0.8312	1.059	1.283	1.512	1.797	2.036	2.283	2.534	2.778

CCC(=O)O + Cc1ccccc1N
viscosity [mPa·s], 100 kPa
Settings	x2 = 0.0977	x2 = 0.1983	x2 = 0.2728	x2 = 0.3622	x2 = 0.4952	x2 = 0.5997	x2 = 0.6763	x2 = 0.7449	x2 = 0.8891
303.15 K	1.2	1.45	1.64	1.85	2.16	2.4	2.57	2.72	3.03
308.15 K	1.1	1.31	1.47	1.65	1.91	2.11	2.25	2.38	2.64
313.15 K	1	1.19	1.32	1.48	1.71	1.88	2	2.11	2.33
318.15 K	0.91	1.07	1.18	1.32	1.51	1.66	1.76	1.85	2.03

Nc1cccc(Cl)c1 + Clc1ccccc1
Settings	viscosity [mPa·s]
308.15 K, 100 kPa, x1 = 0.3821	2.145

O=[N+]([O-])[O-].[Li+] + N
293.15 K, 101 kPa
Settings	viscosity [mPa·s]
x1 = 0.026	0.168
x1 = 0.059	0.228
x1 = 0.096	0.32
x1 = 0.174	0.602

CCC(=O)O + NC=O
viscosity [mPa·s]
Settings	298.15 K	303.15 K	308.15 K	313.15 K
101 kPa, x2 = 0.1002	2.15	–	–	1.52
101 kPa, x2 = 0.1949	3.368	–	–	2.231
101 kPa, x2 = 0.2992	4.445	–	–	2.877
101 kPa, x2 = 0.3979	5.67	–	–	3.546
101 kPa, x2 = 0.4976	6.48	–	–	4.16
101 kPa, x2 = 0.5987	6.98	–	–	4.528
101 kPa, x2 = 0.7338	7.19	–	–	4.708
101 kPa, x2 = 0.8115	6.92	–	–	4.48
101 kPa, x2 = 0.9101	5.59	–	–	3.551
101 kPa, x2 = 0.976	3.838	–	–	–
101.33 kPa, x2 = 0.0769	1.4	1.28	1.19	1.09
101.33 kPa, x2 = 0.1507	1.89	1.7	1.57	1.46
101.33 kPa, x2 = 0.2323	2.54	2.25	2.05	1.89
101.33 kPa, x2 = 0.3109	3.21	2.78	2.5	2.27
101.33 kPa, x2 = 0.393	3.83	3.28	2.94	2.64
101.33 kPa, x2 = 0.4098	3.92	3.37	3.01	2.69
101.33 kPa, x2 = 0.4649	4.24	3.62	3.23	2.89
101.33 kPa, x2 = 0.5404	4.48	3.83	3.41	3.03
101.33 kPa, x2 = 0.6138	4.8	4.06	3.6	3.2
101.33 kPa, x2 = 0.6916	4.7	4.01	3.57	3.18
101.33 kPa, x2 = 0.7633	4.49	3.84	3.43	3.07
101.33 kPa, x2 = 0.8461	4.22	3.63	3.26	2.93
101.33 kPa, x2 = 0.9226	3.75	3.25	2.94	2.66

Nc1cccc(Cl)c1 + NCCO
Settings	viscosity [mPa·s]
308.15 K, 100 kPa, x1 = 0.3619	8.885

CCC(=O)O + Nc1ccccc1
Settings	viscosity [mPa·s]
298.15 K, 101 kPa, x1 = 0.0996	4.218
298.15 K, 101 kPa, x1 = 0.2015	4.652
298.15 K, 101 kPa, x1 = 0.2966	5.177
298.15 K, 101 kPa, x1 = 0.388	5.87
298.15 K, 101 kPa, x1 = 0.4955	6.898
298.15 K, 101 kPa, x1 = 0.5962	7.775
298.15 K, 101 kPa, x1 = 0.716	7.294
298.15 K, 101 kPa, x1 = 0.7994	5.282
298.15 K, 101 kPa, x1 = 0.895	2.477
308.15 K, 101.33 kPa, x1 = 0.1243	2.912
308.15 K, 101.33 kPa, x1 = 0.2382	3.203
308.15 K, 101.33 kPa, x1 = 0.3507	3.59
308.15 K, 101.33 kPa, x1 = 0.4545	3.971
308.15 K, 101.33 kPa, x1 = 0.5568	4.468
308.15 K, 101.33 kPa, x1 = 0.6544	4.762
308.15 K, 101.33 kPa, x1 = 0.7452	4.169
308.15 K, 101.33 kPa, x1 = 0.7903	3.402
308.15 K, 101.33 kPa, x1 = 0.8345	2.792
308.15 K, 101.33 kPa, x1 = 0.8774	2.008
308.15 K, 101.33 kPa, x1 = 0.918	1.561
308.15 K, 101.33 kPa, x1 = 0.9595	1.168

O=C(O)c1ccccc1O + O
viscosity [mPa·s], 100 kPa
Settings	x1 = 7.22e-05	x1 = 0.000108	x1 = 0.000143	x1 = 0.00018	x1 = 0.0002158	x1 = 0.0002516
293.15 K	1.008	1.011	1.013	1.015	1.017	1.019
298.15 K	0.896	0.899	0.901	0.902	0.904	0.906
303.15 K	0.803	0.806	0.807	0.809	0.81	0.812
308.15 K	0.725	0.727	0.729	0.73	0.732	0.733
313.15 K	0.659	0.661	0.662	0.664	0.665	0.666

OC(O)C(Cl)(Cl)Cl + O
293.15 K, 101 kPa
Settings	viscosity [mPa·s]
x1 = 0.026	1.276
x1 = 0.0441	1.631
x1 = 0.06	1.841

OC[C@@H](O)[C@@H](O[C@H]1O[C@H](CO)[C@@H](O)[C@H](O)[C@H]1O)[C@H](O)[C@@H](O)CO + O
Settings	viscosity
293.15 K, 100 kPa, x1 = 0.06986	60.3 mPa·s
293.15 K, 101.3 kPa, x1 = 0.004	1.19 mPa·s
293.15 K, 101.3 kPa, x1 = 0.007	1.45 mPa·s
293.15 K, 101.3 kPa, x1 = 0.01	1.77 mPa·s
293.15 K, 101.3 kPa, x1 = 0.018	2.6 mPa·s
298.15 K, 100 kPa, x1 = 0.07553	62 mPa·s
303.15 K, 100 kPa, x1 = 0.08206	64 mPa·s
303.15 K, 101 kPa, x1 = 0.003592	0.9493 mPa·s
303.15 K, 101.3 kPa, x1 = 0.004	0.92 mPa·s
303.15 K, 101.3 kPa, x1 = 0.007	1.11 mPa·s
303.15 K, 101.3 kPa, x1 = 0.01	1.34 mPa·s
303.15 K, 101.3 kPa, x1 = 0.018	1.93 mPa·s
308.15 K, 100 kPa, x1 = 0.08946	67 mPa·s
313.15 K, 100 kPa, x1 = 0.09729	68 mPa·s
313.15 K, 101.3 kPa, x1 = 0.004	0.75 mPa·s
313.15 K, 101.3 kPa, x1 = 0.007	0.89 mPa·s
313.15 K, 101.3 kPa, x1 = 0.01	1.05 mPa·s and 1.27 mPa·s
313.15 K, 101.3 kPa, x1 = 0.018	1.49 mPa·s
318.15 K, 100 kPa, x1 = 0.1055	76 mPa·s
323.15 K, 100 kPa, x1 = 0.1147	79 mPa·s
323.15 K, 101 kPa, x1 = 0.003592	0.6401 mPa·s
323.15 K, 101 kPa, x1 = 0.007153	0.7457 mPa·s
323.15 K, 101.3 kPa, x1 = 0.004	0.62 mPa·s
323.15 K, 101.3 kPa, x1 = 0.007	0.73 mPa·s
323.15 K, 101.3 kPa, x1 = 0.01	0.86 mPa·s and 1.05 mPa·s
323.15 K, 101.3 kPa, x1 = 0.018	1.19 mPa·s
